Results: patent US6605606B1, “Solid forms of tin ethyl etiopurpurin and processes for producing such forms” (Miravant Pharmaceuticals, Inc., priority 2000, dated 2003)

Key:
[1] = Light stability of SnET2 solid forms under visible light irradiation (XRPD and HPLC); assay type: physicochemical; details: for XRPD Result / Impurity Levels by HPLC Peak 1 (photooxidized product) / Impurity Levels by HPLC Peak 2 / Impurity Levels by HPLC Peak 3: solid
Procedure: Comparative stability studies were performed on crystalline Form I, crystalline Form II, disordered Form II and the amorphous form. Light stability studies were carried out in a closed, black 30×16×12 inch cabinet containing two 24-inch, 20-watt fluorescent bulbs as the light source. The samples were placed approximately 10 inches from the bulbs. Each sample consisted of approximately 30-mg of SnET2 in a 1-dram vial. Samples were removed at the time intervals indicated in Table 11, analyzed by XRPD and HPLC.

[2] = Relative thermodynamic stability of crystalline forms (slurry interconversion, XRPD); assay type: physicochemical; details: slurrying in dichloromethane, acetone and mixtures, ambient or 50° C.
Description: Unsolvated, anhydrous, polymorphic forms of a compound differ in their free energies. A set of polymorphs may be ranked in order of thermodynamic stability under a given set of pressure and temperature conditions. […] Production of the stable form is said to occur under thermodynamic conditions. […] Phys. Chem. 22:306 (1897)]. […] Kinetic and thermodynamic conditions differ in the amount of energy utilized. While the absolute amount depends on the compound in question, relatively speaking, kinetic conditions involve lower temperatures and shorter reaction times while thermodynamic conditions involve higher temperatures and longer reaction times.
Under subdued lighting, a slurry containing a 1:1 mixture of SnET2 crystalline Form I and SnET2 crystalline Form II (100-200 mg each) in 1-3 mL of a solvent, listed in Table 13 below, was agitated in a tightly-capped tube at ambient temperature or at 50° C. The undissolved solid was collected by filtration and found, by XRPD analysis, to be crystalline Form II.

[3] = visible light (two 20-watt fluorescent bulbs, approx. 10 inches), 0 days
[4] = visible light irradiation, 0 days
[5] = visible light irradiation, 2 days
[6] = visible light irradiation, 4 days
[7] = visible light irradiation, 6 days
[8] = visible light irradiation, 8 days
[9] = visible light irradiation, 19 days
[10] = visible light irradiation, 29 days

Tin ethyl etiopurpurin [Disordered Form II]
XRPD Result [1, 3]: Disordered FII
Impurity Levels by HPLC Peak 1 (photooxidized product) [1, 4]: 0.65
Impurity Levels by HPLC Peak 2 [1, 4]: 0.10
Impurity Levels by HPLC Peak 3 [1, 4]: 0.19
Impurity Levels by HPLC Peak 1 (photooxidized product) [1, 5]: 1.24
Impurity Levels by HPLC Peak 2 [1, 5]: 0.13
Impurity Levels by HPLC Peak 3 [1, 5]: 0.19
XRPD Result [1, 5]: Disordered FII
Impurity Levels by HPLC Peak 1 (photooxidized product) [1, 6]: 1.98
Impurity Levels by HPLC Peak 2 [1, 6]: 0.09
Impurity Levels by HPLC Peak 3 [1, 6]: 0.27
XRPD Result [1, 6]: Disordered FII
Impurity Levels by HPLC Peak 1 (photooxidized product) [1, 7]: 2.51
Impurity Levels by HPLC Peak 2 [1, 7]: 0.11
Impurity Levels by HPLC Peak 3 [1, 7]: 0.28
XRPD Result [1, 7]: Disordered FII
Impurity Levels by HPLC Peak 1 (photooxidized product) [1, 8]: 1.77
Impurity Levels by HPLC Peak 2 [1, 8]: 0.12
Impurity Levels by HPLC Peak 3 [1, 8]: 0.28
XRPD Result [1, 8]: Disordered FII
Impurity Levels by HPLC Peak 1 (photooxidized product) [1, 9]: 3.54
Impurity Levels by HPLC Peak 2 [1, 9]: 0.06
Impurity Levels by HPLC Peak 3 [1, 9]: 0.32
XRPD Result [1, 9]: Disordered FII
Impurity Levels by HPLC Peak 1 (photooxidized product) [1, 10]: 4.92
Impurity Levels by HPLC Peak 2 [1, 10]: 0.10
Impurity Levels by HPLC Peak 3 [1, 10]: 0.51
XRPD Result [1, 10]: Disordered FII

Tin ethyl etiopurpurin [Crystalline Form II]
XRPD Result [1, 3]: Crystalline
Impurity Levels by HPLC Peak 1 (photooxidized product) [1, 4]: 0.00
Impurity Levels by HPLC Peak 2 [1, 4]: 0.23
Impurity Levels by HPLC Peak 3 [1, 4]: 0.00
Impurity Levels by HPLC Peak 1 (photooxidized product) [1, 5]: 0.44
Impurity Levels by HPLC Peak 2 [1, 5]: 0.23
Impurity Levels by HPLC Peak 3 [1, 5]: 0.04
XRPD Result [1, 5]: Crystalline
Impurity Levels by HPLC Peak 1 (photooxidized product) [1, 6]: 0.56
Impurity Levels by HPLC Peak 2 [1, 6]: 0.24
Impurity Levels by HPLC Peak 3 [1, 6]: 0.09
XRPD Result [1, 6]: Crystalline
Impurity Levels by HPLC Peak 1 (photooxidized product) [1, 7]: 0.82
Impurity Levels by HPLC Peak 2 [1, 7]: 0.21
Impurity Levels by HPLC Peak 3 [1, 7]: 0.10
XRPD Result [1, 7]: Crystaliine
Impurity Levels by HPLC Peak 1 (photooxidized product) [1, 8]: 0.96
Impurity Levels by HPLC Peak 2 [1, 8]: 0.21
Impurity Levels by HPLC Peak 3 [1, 8]: 0.15
XRPD Result [1, 8]: Crystalline
Impurity Levels by HPLC Peak 1 (photooxidized product) [1, 9]: 1.12
Impurity Levels by HPLC Peak 2 [1, 9]: 0.18
Impurity Levels by HPLC Peak 3 [1, 9]: 0.14
XRPD Result [1, 9]: Crystalline
Impurity Levels by HPLC Peak 1 (photooxidized product) [1, 10]: 1.68
Impurity Levels by HPLC Peak 2 [1, 10]: 0.17
Impurity Levels by HPLC Peak 3 [1, 10]: 0.11
XRPD Result [1, 10]: Crystalline
relative (thermodynamic) stability of crystalline forms [2]: thermodynamically more stable form
relative (thermodynamic) stability of crystalline forms ([2]; listed as crystalline Form II): more stable than crystalline Form I

Tin ethyl etiopurpurin [Amorphous]
rate of photoproduct formation by HPLC ([1]; exposed to visible light, compared with the other solid forms): produced more rapidly in the amorphous form than any other form
XRPD Result [1, 3]: Amorphous
Impurity Levels by HPLC Peak 1 (photooxidized product) [1, 4]: 1.62
Impurity Levels by HPLC Peak 2 [1, 4]: 0.70
Impurity Levels by HPLC Peak 3 [1, 4]: 0.00
Impurity Levels by HPLC Peak 1 (photooxidized product) [1, 5]: 6.60
Impurity Levels by HPLC Peak 2 [1, 5]: 0.71
Impurity Levels by HPLC Peak 3 [1, 5]: 0.03
XRPD Result [1, 5]: Amorphous
Impurity Levels by HPLC Peak 1 (photooxidized product) [1, 6]: 9.78
Impurity Levels by HPLC Peak 2 [1, 6]: 0.73
Impurity Levels by HPLC Peak 3 [1, 6]: 0.15
XRPD Result [1, 6]: Amorphous
Impurity Levels by HPLC Peak 1 (photooxidized product) [1, 7]: 1.84
Impurity Levels by HPLC Peak 2 [1, 7]: 0.11
Impurity Levels by HPLC Peak 3 [1, 7]: 0.23
XRPD Result [1, 7]: Amorphous
Impurity Levels by HPLC Peak 1 (photooxidized product) [1, 8]: 12.66
Impurity Levels by HPLC Peak 2 [1, 8]: 0.70
Impurity Levels by HPLC Peak 3 [1, 8]: 0.27
XRPD Result [1, 8]: Amorphous
Impurity Levels by HPLC Peak 1 (photooxidized product) [1, 9]: 14.13
Impurity Levels by HPLC Peak 2 [1, 9]: 0.73
Impurity Levels by HPLC Peak 3 [1, 9]: 0.38
XRPD Result [1, 9]: Amorphous
Impurity Levels by HPLC Peak 1 (photooxidized product) [1, 10]: 18.72
Impurity Levels by HPLC Peak 2 [1, 10]: 0.76
Impurity Levels by HPLC Peak 3 [1, 10]: 0.38
XRPD Result [1, 10]: Amorphous

Tin ethyl etiopurpurin [Crystalline Form I]
XRPD Result [1, 3]: Crystalline
Impurity Levels by HPLC Peak 1 (photooxidized product) [1, 4]: 0.20
Impurity Levels by HPLC Peak 2 [1, 4]: 0.15
Impurity Levels by HPLC Peak 3 [1, 4]: 0.0
Impurity Levels by HPLC Peak 1 (photooxidized product) [1, 5]: 0.89
Impurity Levels by HPLC Peak 2 [1, 5]: 0.16
Impurity Levels by HPLC Peak 3 [1, 5]: 0.0
XRPD Result [1, 5]: Crystalline
Impurity Levels by HPLC Peak 1 (photooxidized product) [1, 6]: 9.61
Impurity Levels by HPLC Peak 2 [1, 6]: 0.84
Impurity Levels by HPLC Peak 3 [1, 6]: 0.0
XRPD Result [1, 6]: Crystalline
Impurity Levels by HPLC Peak 1 (photooxidized product) [1, 7]: 2.16
Impurity Levels by HPLC Peak 2 [1, 7]: 0.14
Impurity Levels by HPLC Peak 3 [1, 7]: 0.09
XRPD Result [1, 7]: Crystalline
Impurity Levels by HPLC Peak 1 (photooxidized product) [1, 8]: 1.87
Impurity Levels by HPLC Peak 2 [1, 8]: 0.15
Impurity Levels by HPLC Peak 3 [1, 8]: 0.13
XRPD Result [1, 8]: Crystalline
Impurity Levels by HPLC Peak 1 (photooxidized product) [1, 9]: 2.39
Impurity Levels by HPLC Peak 2 [1, 9]: 0.34
Impurity Levels by HPLC Peak 3 [1, 9]: 0.17
XRPD Result [1, 9]: Crystalline
Impurity Levels by HPLC Peak 1 (photooxidized product) [1, 10]: 4.47
Impurity Levels by HPLC Peak 2 [1, 10]: 0.11
Impurity Levels by HPLC Peak 3 [1, 10]: 0.21
XRPD Result [1, 10]: Crystalline
